Measured values: PMC10838953

Columns and labels:
IKK-beta = IKK-beta (Homo sapiens, UniProt O14920); test: biochemical; settings: read-out: %Ctrl @ 2000nM
PKNB(M.tuberculosis) = PKNB(M.tuberculosis) (Mycobacterium tuberculosis, UniProt P9WI81); test: biochemical; settings: read-out: %Ctrl @ 2000nM
DRAK1 = DRAK1 (Homo sapiens, UniProt Q9UEE5); test: biochemical; settings: read-out: %Ctrl @ 2000nM
DYRK1B = DYRK1B (Homo sapiens, UniProt Q9Y463); test: biochemical; settings: read-out: %Ctrl @ 2000nM
PDGFRA = PDGFRA (Homo sapiens, UniProt P16234); test: biochemical; settings: read-out: %Ctrl @ 2000nM
VEGFR2 = VEGFR2 (Homo sapiens, UniProt P35968); test: biochemical; settings: read-out: %Ctrl @ 2000nM
PRKX = PRKX (Homo sapiens, UniProt P51817); test: biochemical; settings: read-out: %Ctrl @ 2000nM
S6K1 = S6K1 (Homo sapiens, UniProt P23443); test: biochemical; settings: read-out: %Ctrl @ 2000nM
PIK3CG = PIK3CG (Homo sapiens, UniProt P48736); test: biochemical; settings: read-out: %Ctrl @ 2000nM
IKK-alpha = IKK-alpha (Homo sapiens, UniProt O15111); test: biochemical; settings: read-out: %Ctrl @ 2000nM
FGFR2 = FGFR2 (Homo sapiens, UniProt P21802); test: biochemical; settings: read-out: %Ctrl @ 2000nM
CK2 in HEK293 cells = settings: read-out: IC50 CK2 activity in cell extracts
RET = RET (Homo sapiens, UniProt P07949); test: biochemical; settings: read-out: %Ctrl @ 2000nM
MRCKA = MRCKA (Homo sapiens, UniProt Q5VT25); test: biochemical; settings: read-out: %Ctrl @ 2000nM
MYLK2 = MYLK2 (Homo sapiens, UniProt Q9H1R3); test: biochemical; settings: read-out: %Ctrl @ 2000nM
[1] = biological target: ABL1(F317I)-nonphosphorylated (Homo sapiens, UniProt P00519, F317I); test: biochemical; settings: read-out: %Ctrl @ 2000nM
[2] = biological target: JAK1(JH2domain-pseudokinase) (Homo sapiens, UniProt P23458); test: biochemical; settings: read-out: %Ctrl @ 2000nM
[3] = biological target: ABL1(H396P)-nonphosphorylated (Homo sapiens, UniProt P00519, H396P); test: biochemical; settings: read-out: %Ctrl @ 2000nM
SBK1 = SBK1 (Homo sapiens, UniProt Q52WX2); test: biochemical; settings: read-out: %Ctrl @ 2000nM
TAOK3 = TAOK3 (Homo sapiens, UniProt Q9H2K8); test: biochemical; settings: read-out: %Ctrl @ 2000nM
PIK3CD = PIK3CD (Homo sapiens, UniProt O00329); test: biochemical; settings: read-out: %Ctrl @ 2000nM
RIOK3 = RIOK3 (Homo sapiens, UniProt O14730); test: biochemical; settings: read-out: %Ctrl @ 2000nM
CK2 in 786-O cells = settings: read-out: IC50 CK2 activity in cell extracts
HIPK2 = HIPK2 (Homo sapiens, UniProt Q9H2X6); test: biochemical; settings: read-out: %Ctrl @ 2000nM
[4] = biological target: RPS6KA4(Kin.Dom.2-C-terminal) (Homo sapiens, UniProt O75676); test: biochemical; settings: read-out: %Ctrl @ 2000nM
[5] = biological target: ABL1(Q252H)-phosphorylated (Homo sapiens, UniProt P00519, Q252H); test: biochemical; settings: read-out: %Ctrl @ 2000nM
[6] = biological target: RSK3(Kin.Dom.1-N-terminal) (Homo sapiens, UniProt Q15349); test: biochemical; settings: read-out: %Ctrl @ 2000nM
FGFR3(G697C) = FGFR3(G697C) (Homo sapiens, UniProt P22607, G697C); test: biochemical; settings: read-out: %Ctrl @ 2000nM
SGK = SGK (Homo sapiens, UniProt O00141); test: biochemical; settings: read-out: %Ctrl @ 2000nM
JNK1 = JNK1 (Homo sapiens, UniProt P45983); test: biochemical; settings: read-out: %Ctrl @ 2000nM
PIK3CA = PIK3CA (Homo sapiens, UniProt P42336); test: biochemical; settings: read-out: %Ctrl @ 2000nM
CAMKK2 = CAMKK2 (Homo sapiens, UniProt Q96RR4); test: biochemical; settings: read-out: %Ctrl @ 2000nM
FLT3(N841I) = FLT3(N841I) (Homo sapiens, UniProt P36888, N841I); test: biochemical; settings: read-out: %Ctrl @ 2000nM
PIK3CA(C420R) = PIK3CA(C420R) (Homo sapiens, UniProt P42336, C420R); test: biochemical; settings: read-out: %Ctrl @ 2000nM
BRSK1 = BRSK1 (Homo sapiens, UniProt Q8TDC3); test: biochemical; settings: read-out: %Ctrl @ 2000nM
NEK6 = NEK6 (Homo sapiens, UniProt Q9HC98); test: biochemical; settings: read-out: %Ctrl @ 2000nM
STAT3 (S727) = settings: 786-O cells; 48 h
WNK4 = WNK4 (Homo sapiens, UniProt Q96J92); test: biochemical; settings: read-out: %Ctrl @ 2000nM
CDK2 = CDK2 (Homo sapiens, UniProt P24941); test: biochemical; settings: read-out: %Ctrl @ 2000nM
MYLK = MYLK (Homo sapiens, UniProt Q15746); test: biochemical; settings: read-out: %Ctrl @ 2000nM
SIK = SIK (Homo sapiens, UniProt P57059); test: biochemical; settings: read-out: %Ctrl @ 2000nM
PIKFYVE = PIKFYVE (Homo sapiens, UniProt Q9Y2I7); test: biochemical; settings: read-out: %Ctrl @ 2000nM

Sequence of CAMKK2 (Q96RR4 whole entry): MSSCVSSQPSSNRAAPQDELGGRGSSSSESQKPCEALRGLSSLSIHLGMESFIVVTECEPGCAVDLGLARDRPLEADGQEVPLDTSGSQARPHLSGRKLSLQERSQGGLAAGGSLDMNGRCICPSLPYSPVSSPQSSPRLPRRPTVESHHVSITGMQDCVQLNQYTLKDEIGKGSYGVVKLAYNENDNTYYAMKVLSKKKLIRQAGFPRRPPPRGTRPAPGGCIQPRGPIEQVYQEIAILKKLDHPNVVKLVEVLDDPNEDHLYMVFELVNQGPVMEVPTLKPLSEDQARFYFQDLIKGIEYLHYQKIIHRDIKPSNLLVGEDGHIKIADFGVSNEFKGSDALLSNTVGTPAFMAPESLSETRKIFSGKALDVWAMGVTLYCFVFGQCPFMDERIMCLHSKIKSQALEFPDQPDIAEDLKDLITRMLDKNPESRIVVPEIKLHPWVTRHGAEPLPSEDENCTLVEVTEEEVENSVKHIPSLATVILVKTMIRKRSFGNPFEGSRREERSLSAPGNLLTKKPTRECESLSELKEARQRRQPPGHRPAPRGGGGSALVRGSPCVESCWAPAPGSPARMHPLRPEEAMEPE
Sequence of MYLK (Q15746 whole entry): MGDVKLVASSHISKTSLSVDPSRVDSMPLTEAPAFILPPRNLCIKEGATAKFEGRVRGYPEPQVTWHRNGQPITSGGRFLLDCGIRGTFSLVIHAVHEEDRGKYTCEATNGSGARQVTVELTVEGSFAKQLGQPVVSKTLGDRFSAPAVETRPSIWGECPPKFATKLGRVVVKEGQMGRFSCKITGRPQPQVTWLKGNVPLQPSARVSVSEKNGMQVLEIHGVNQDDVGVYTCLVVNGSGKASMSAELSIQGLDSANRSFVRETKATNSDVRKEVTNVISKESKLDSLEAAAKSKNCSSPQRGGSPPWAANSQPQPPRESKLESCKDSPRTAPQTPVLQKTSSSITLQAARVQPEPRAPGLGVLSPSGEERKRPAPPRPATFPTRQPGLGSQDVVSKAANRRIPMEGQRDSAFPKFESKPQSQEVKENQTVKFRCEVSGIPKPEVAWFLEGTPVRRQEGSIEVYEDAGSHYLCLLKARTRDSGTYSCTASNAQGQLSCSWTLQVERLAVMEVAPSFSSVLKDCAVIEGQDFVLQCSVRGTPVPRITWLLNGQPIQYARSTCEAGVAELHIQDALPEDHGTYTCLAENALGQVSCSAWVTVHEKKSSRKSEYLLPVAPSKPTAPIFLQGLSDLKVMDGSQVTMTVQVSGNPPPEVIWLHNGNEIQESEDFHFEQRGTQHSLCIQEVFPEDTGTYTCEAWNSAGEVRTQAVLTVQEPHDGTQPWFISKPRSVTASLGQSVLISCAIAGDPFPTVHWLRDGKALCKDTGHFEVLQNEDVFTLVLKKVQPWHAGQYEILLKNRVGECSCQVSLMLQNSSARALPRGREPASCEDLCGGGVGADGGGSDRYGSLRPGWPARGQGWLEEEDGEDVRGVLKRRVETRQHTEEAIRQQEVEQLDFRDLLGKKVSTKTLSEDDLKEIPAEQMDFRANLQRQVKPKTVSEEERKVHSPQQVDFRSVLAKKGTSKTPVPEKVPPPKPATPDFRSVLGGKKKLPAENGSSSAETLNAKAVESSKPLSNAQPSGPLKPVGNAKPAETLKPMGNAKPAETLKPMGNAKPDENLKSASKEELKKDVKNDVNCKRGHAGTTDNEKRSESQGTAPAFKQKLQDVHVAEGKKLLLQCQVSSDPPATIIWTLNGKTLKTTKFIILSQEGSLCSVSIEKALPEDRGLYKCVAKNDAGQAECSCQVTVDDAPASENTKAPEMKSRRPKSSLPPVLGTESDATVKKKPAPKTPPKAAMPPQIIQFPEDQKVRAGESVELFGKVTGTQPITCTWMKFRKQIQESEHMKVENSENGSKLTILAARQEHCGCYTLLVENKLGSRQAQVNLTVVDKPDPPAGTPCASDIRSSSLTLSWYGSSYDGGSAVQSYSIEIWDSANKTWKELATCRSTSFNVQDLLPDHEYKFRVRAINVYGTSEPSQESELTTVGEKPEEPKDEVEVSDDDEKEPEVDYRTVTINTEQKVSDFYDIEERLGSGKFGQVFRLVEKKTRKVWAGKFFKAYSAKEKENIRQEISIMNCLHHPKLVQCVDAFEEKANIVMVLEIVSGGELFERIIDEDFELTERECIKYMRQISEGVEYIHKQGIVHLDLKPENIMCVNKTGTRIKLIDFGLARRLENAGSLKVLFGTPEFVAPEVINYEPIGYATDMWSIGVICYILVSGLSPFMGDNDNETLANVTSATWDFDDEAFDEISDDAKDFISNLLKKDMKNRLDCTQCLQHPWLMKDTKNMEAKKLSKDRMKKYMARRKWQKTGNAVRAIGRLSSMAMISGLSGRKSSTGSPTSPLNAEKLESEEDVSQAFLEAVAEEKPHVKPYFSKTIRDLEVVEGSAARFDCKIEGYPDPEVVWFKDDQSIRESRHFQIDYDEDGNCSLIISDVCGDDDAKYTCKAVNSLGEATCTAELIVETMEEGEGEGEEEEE
Sequence of NEK6 (Q9HC98 whole entry): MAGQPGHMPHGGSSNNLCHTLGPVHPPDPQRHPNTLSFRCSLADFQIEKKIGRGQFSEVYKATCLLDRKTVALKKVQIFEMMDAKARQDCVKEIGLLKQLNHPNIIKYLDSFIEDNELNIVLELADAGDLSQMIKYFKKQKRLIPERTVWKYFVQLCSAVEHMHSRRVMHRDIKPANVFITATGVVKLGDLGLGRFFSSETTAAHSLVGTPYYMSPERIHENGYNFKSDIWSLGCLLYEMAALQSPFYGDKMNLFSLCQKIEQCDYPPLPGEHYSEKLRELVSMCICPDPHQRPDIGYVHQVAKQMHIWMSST
Sequence of RSK3(Kin.Dom.1-N-terminal) (Q15349 1-388 limits assumed): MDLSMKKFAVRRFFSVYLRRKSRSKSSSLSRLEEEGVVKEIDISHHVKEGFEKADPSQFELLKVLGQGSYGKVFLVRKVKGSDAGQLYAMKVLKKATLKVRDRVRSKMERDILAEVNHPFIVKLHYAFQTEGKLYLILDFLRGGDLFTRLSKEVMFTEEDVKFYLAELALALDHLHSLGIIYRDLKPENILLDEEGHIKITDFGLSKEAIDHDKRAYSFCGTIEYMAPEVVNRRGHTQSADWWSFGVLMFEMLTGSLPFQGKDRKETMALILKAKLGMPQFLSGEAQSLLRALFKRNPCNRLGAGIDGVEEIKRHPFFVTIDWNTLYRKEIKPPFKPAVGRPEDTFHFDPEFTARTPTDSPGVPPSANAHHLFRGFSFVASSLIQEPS
Sequence of MRCKA (Q5VT25 whole entry): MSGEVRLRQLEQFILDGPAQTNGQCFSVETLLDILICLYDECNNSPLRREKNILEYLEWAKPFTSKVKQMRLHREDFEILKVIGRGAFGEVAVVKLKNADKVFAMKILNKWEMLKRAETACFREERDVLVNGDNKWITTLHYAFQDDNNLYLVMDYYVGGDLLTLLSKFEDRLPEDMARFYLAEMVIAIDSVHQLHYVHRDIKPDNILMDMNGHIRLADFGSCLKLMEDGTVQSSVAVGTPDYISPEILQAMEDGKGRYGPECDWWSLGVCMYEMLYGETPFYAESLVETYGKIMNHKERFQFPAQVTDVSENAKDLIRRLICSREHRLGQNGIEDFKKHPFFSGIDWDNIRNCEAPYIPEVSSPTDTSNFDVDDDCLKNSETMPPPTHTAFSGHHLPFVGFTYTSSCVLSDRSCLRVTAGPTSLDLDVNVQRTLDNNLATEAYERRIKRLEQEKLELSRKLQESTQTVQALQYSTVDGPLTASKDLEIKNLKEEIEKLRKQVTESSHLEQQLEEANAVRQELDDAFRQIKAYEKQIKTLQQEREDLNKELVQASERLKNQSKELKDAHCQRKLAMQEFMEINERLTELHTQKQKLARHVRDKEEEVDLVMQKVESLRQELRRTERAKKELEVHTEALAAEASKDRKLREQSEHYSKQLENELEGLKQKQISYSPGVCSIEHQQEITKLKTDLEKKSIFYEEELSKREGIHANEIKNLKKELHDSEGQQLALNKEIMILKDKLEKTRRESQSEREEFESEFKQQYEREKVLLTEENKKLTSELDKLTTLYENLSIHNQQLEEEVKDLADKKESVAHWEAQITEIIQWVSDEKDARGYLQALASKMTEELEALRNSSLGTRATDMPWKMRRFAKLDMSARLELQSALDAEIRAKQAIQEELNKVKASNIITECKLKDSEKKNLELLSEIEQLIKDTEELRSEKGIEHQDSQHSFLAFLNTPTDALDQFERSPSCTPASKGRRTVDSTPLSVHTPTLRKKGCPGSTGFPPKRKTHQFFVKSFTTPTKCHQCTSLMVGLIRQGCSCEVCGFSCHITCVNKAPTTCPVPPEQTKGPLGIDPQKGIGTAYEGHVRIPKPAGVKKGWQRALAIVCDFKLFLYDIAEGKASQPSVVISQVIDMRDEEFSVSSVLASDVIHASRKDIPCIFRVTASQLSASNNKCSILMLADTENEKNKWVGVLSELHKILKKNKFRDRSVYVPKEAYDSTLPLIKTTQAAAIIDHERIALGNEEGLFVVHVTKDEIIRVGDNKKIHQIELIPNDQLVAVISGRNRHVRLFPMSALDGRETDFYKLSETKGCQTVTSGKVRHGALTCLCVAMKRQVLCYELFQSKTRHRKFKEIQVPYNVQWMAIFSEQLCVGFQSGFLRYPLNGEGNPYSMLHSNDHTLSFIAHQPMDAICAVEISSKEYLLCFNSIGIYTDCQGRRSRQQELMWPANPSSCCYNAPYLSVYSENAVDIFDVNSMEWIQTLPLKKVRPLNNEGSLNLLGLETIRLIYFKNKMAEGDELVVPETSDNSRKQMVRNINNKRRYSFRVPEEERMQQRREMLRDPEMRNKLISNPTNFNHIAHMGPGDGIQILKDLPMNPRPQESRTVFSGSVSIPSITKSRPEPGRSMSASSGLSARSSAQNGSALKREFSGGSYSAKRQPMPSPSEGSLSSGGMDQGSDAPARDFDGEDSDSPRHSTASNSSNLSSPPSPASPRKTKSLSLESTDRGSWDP

`CC(C)COC(=O)c1[nH]c2ccc(F)cc2c1-c1cn(CC2CCN(CCNS(=O)(=O)c3ccc(CC(C)C)cc3)CC2)nn1` [AB668, isobutyl 5-fluoro-3-(1-((1-(2-((4-isobutylphenyl)sulfonamido)ethyl)piperidin-4-yl)methyl)-1H-1,2,3-triazol-4-yl)-1H-indole-2-carboxylate] gave a remaining activity at 2 µM (IKK-beta) of 91%, a remaining activity at 2 µM (PKNB(M.tuberculosis)) of 100% and a remaining activity at 2 µM (DRAK1) of 100%. The remaining activity at 2 µM (DYRK1B) was 83%, the remaining activity at 2 µM (PDGFRA) was 86% and the remaining activity at 2 µM (VEGFR2) was 98%. The remaining activity at 2 µM (PRKX) was 69%, the remaining activity at 2 µM (S6K1) was 89% and the remaining activity at 2 µM (PIK3CG) was 90%. The remaining activity at 2 µM (IKK-alpha) was 100%, the remaining activity at 2 µM (FGFR2) was 93% and the IC50 (CK2 in HEK293 cells) was 600 ± 110 nM. It also gave a remaining activity at 2 µM (RET) of 87%, a remaining activity at 2 µM (MRCKA) of 84% and a remaining activity at 2 µM (MYLK2) of 96%. The remaining activity at 2 µM [1] was 79%, the remaining activity at 2 µM [2] was 93% and the remaining activity at 2 µM [3] was 97%. It also gave a remaining activity at 2 µM (SBK1) of 88%, a remaining activity at 2 µM (TAOK3) of 100% and a remaining activity at 2 µM (PIK3CD) of 91%. The remaining activity at 2 µM (RIOK3) was 97%, the IC50 (CK2 in 786-O cells) was 340 ± 70 nM and the remaining activity at 2 µM (HIPK2) was 100%. For the same compound, the remaining activity at 2 µM [4] was 97%, the remaining activity at 2 µM [5] was 86% and the remaining activity at 2 µM [6] was 93%. For the same compound, the remaining activity at 2 µM (FGFR3(G697C)) was 100%, the remaining activity at 2 µM (SGK) was 100% and the remaining activity at 2 µM (JNK1) was 77%. It also gave a remaining activity at 2 µM (PIK3CA) of 82%, a remaining activity at 2 µM (CAMKK2) of 81% and a remaining activity at 2 µM (FLT3(N841I)) of 95%. The remaining activity at 2 µM (PIK3CA(C420R)) was 100%, the remaining activity at 2 µM (BRSK1) was 78% and the remaining activity at 2 µM (NEK6) was 87%. For the same compound, the “activated forms of STAT3” value (STAT3 (S727)) was “dose-dependent inhibition”, the remaining activity at 2 µM (WNK4) was 96% and the remaining activity at 2 µM (CDK2) was 90%. For the same compound, the remaining activity at 2 µM (MYLK) was 81%, the remaining activity at 2 µM (SIK) was 97% and the remaining activity at 2 µM (PIKFYVE) was 1.7%.
